Values of other authors as cited in patent US8338423B2, “Compositions for the treatment of hyperphenylalaninemia” (Universidad de Zaragoza, priority 2007, dated 2012).

Molecular target: T1, wt-PAH (Homo sapiens, UniProt P00439)
T1 construct: made in house; host or cells: E. coli
T1 sequence (P00439 1-452): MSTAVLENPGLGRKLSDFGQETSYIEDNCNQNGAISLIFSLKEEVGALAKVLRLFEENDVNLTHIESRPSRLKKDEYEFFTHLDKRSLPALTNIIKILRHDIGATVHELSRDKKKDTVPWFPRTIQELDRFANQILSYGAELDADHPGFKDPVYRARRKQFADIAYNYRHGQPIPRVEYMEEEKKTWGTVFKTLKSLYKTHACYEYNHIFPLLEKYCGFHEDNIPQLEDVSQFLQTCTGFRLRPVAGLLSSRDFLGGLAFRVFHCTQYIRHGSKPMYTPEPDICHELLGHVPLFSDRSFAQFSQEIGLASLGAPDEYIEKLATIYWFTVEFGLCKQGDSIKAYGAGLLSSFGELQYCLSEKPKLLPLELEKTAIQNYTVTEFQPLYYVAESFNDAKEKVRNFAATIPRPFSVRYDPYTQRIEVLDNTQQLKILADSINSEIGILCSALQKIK
Details: comparison values; read-out: Kl of likely physiological inhibitors of PAH; cited from earlier work

| Compound | Ki [µM] |
| --- | --- |
| CC(O)C(O)C1CNc2c(nc(N)[nH]c2=O)N1 (stereo not drawn) [Compound 7S-BH4] | 2 to 5 |
| C[C@H](O)[C@H](O)C1=Nc2c(nc(N)[nH]c2=O)NC1 [BH2] | ~17 |
